Data as given in patent US20070275961A1, “Triazolo ' 1, 5-A ! Pyrimidines and Their Use in Medicine” (VERNALIS (CAMBRIDGE) LIMITED., priority 2003, published 2007).
Like-named read-outs stand apart in the source and are kept apart here.

Legend:
Assay type in all cases: biochemical
[1] = biological target: CDK2 enzyme, complexed with cyclin A (Homo sapiens, UniProt P24941); test: CDK2 cyclin dependent kinase assay, phosphorylation of synthetic peptide […] (33P-ATP filtration); details: 0.1 mM ATP
[2] = biological target: T1, PDK1 enzyme (Homo sapiens, UniProt O15530); test: PDK1 3'-phosphoinositide-dependent kinase assay, phosphorylation of synthetic peptide (33P-ATP filtration); details: 0.01 mM ATP, read-out: PDK1 IC50
T1 sequence (O15530 1-556): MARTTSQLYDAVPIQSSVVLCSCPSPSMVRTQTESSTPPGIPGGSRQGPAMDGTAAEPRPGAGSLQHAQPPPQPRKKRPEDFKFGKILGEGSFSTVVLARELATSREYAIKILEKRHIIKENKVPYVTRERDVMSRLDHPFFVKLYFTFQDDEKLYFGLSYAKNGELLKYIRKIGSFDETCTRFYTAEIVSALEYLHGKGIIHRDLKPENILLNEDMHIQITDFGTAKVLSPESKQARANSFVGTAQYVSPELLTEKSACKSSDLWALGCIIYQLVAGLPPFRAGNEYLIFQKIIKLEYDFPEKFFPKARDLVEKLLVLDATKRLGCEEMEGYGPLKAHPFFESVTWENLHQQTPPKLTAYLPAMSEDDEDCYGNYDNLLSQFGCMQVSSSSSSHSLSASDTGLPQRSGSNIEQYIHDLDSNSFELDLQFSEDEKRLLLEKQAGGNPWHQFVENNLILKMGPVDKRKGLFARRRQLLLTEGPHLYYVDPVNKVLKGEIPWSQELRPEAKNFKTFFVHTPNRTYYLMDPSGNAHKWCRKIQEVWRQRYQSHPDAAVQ
In short: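 Radiometric peptide phosphorylation by PDK1 with inhibitor, 60 min at 30 °C, using 0.01 mM ATP plus 33P-γ-ATP, 0.075 mM peptide, 7.5 mM Mg acetate in Tris-HCl pH 7.5. Phosphoric acid stopped reaction; phosphorylated peptide captured on filter plates and counted by scintillation.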

[3] = biological target: T2, Chk1 (Homo sapiens, UniProt O14757); test: Chk1 kinase assay, phosphorylation of Chktide (33P-ATP filtration); details: 0.01 mM ATP, read-out: Chk1 IC50
T2 sequence (O14757 1-476): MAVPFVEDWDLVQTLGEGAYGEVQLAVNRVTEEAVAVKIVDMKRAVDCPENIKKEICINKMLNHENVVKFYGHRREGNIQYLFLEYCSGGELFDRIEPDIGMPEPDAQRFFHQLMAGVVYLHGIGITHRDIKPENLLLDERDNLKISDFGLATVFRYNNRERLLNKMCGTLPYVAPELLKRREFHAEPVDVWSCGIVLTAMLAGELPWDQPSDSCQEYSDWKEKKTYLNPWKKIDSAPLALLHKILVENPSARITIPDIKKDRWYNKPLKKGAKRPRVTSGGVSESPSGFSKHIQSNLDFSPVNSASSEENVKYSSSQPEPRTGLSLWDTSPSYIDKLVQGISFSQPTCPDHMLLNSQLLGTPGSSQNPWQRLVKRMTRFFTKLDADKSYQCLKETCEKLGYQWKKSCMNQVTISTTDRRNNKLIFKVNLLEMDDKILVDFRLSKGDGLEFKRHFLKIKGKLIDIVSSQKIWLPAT
In short: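 GST-Chk1 (11 nM) with inhibitor, 30 μM Chktide peptide, 0.01 mM ATP plus 33P-γ-ATP in 50 mM Hepes pH 7.5 with 0.1 mg/ml BSA, 40 min at 30° C. Stopped with phosphoric acid; phosphorylated peptide captured on filter plates and scintillation-counted.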

SMILES	IC50 ([1]; Table 2) [µM]	IC50 ([2]; Table 2) [µM]	IC50 ([3]; Table 2) [µM]	IC50 ([1]; Table 3) [µM]	IC50 ([2]; Table 3) [µM]	IC50 ([3]; Table 3) [µM]	other results
CNc1cc(Nc2ccc(S(N)(=O)=O)cc2)n2ncnc2n1 [Example 66]	4.19	> 200	> 200	–	–	–	–
NC(=O)c1ccc(Nc2cc(-c3cccc(OCC4CCCNC4)c3)n3ncnc3n2)cc1 (stereo not drawn) [Example 148]	–	–	–	–	–	–	IC50 ([1]; Table 4): 5.38 µM; IC50 ([2]; Table 4): 10.4 µM; IC50 ([3]; Table 4): 17 µM
CCN(CC)CCNC(=O)c1ccc(Nc2cc(Cc3ccccc3OC)n3ncnc3n2)cc1 [Example 125]	–	–	–	> 200	> 200	37.4	–
NC(=O)c1ccc(Nc2cc(-c3cccc(F)c3)nc3ncnn23)cc1 [Example 45]	–	–	–	–	–	–	IC50 ([1]; Table 1): 12.3 µM; IC50 ([2]; Table 1): > 200 µM; IC50 ([3]; Table 1): > 200 µM
NC(=O)c1ccc(Nc2cc(-c3ccc4c(c3)OCO4)n3ncnc3n2)cc1 [Example 137]	–	–	–	> 200	29.1	14.2	–
CCNc1cc(Nc2ccc(S(C)(=O)=O)cc2)n2ncnc2n1 [Example 80]	13.5	> 200	> 200	–	–	–	–
NC(=O)c1ccc(Nc2cc(-c3cccc(OCc4ccccc4)c3)n3ncnc3n2)cc1 [Example 149]	–	–	–	–	–	–	IC50 ([1]; Table 4): 8.41 µM; IC50 ([2]; Table 4): 2.26 µM; IC50 ([3]; Table 4): 4.12 µM
CCN(CC)CCNC(=O)c1ccc(Nc2cc(-c3ccc4c(c3)OCO4)n3ncnc3n2)cc1 [Example 140]	–	–	–	> 200	1.8	1	–
NC(=O)c1cccc(Nc2cc(-c3cccc(F)c3)n3ncnc3n2)c1 [Example 134]	–	–	–	> 200	8.09	23.2	–
N#Cc1ccc(Nc2cc(-c3cccc(F)c3)n3ncnc3n2)cc1 [Example 112]	–	–	–	119	51.6	> 200	–
COc1ccc(Nc2cc(-c3cccc(Cl)c3)nc3ncnn23)cn1 [Example 40]	–	–	–	–	–	–	IC50 ([1]; Table 1): 8.29 µM; IC50 ([2]; Table 1): > 200 µM; IC50 ([3]; Table 1): > 200 µM
NS(=O)(=O)c1ccc(Nc2cc(N3CCCC(O)C3)nc3ncnn23)cc1 (stereo not drawn) [Example 67]	2.3	> 200	> 200	–	–	–	–
CCN(CC)c1cc(Nc2ccccc2)n2ncnc2n1 [Example 82]	4.66	> 200	> 200	–	–	–	–
O=S(=O)(c1ccccc1)c1ccc(Nc2cc(Cl)nc3ncnn23)cc1 [Example 88]	5.98	> 200	11.9	–	–	–	–
O=S(=O)(c1ccc(Nc2cc(Cl)nc3ncnn23)cc1)C(F)(F)F [Example 64]	155	> 200	> 200	–	–	–	–
CCN(CC)c1cc(Nc2ccc(S(=O)(=O)N(C)C)cc2)n2ncnc2n1 [Example 71]	0.59	> 200	> 200	–	–	–	–
COc1ccc(Br)cc1-c1cc(N[C@H]2CC[C@H](O)CC2)n2ncnc2n1 [Example 16]	–	–	–	–	–	–	IC50 ([1]; Table 1): 48 µM; IC50 ([2]; Table 1): > 200 µM; IC50 ([3]; Table 1): > 200 µM
NC(=O)Cc1ccc(Nc2cc(-c3cccc(F)c3)n3ncnc3n2)cc1 [Example 139]	–	–	–	> 200	1.12	3.76	–
Cc1cccc(-c2cc(Nc3ccc(C(N)=O)cc3)nc3ncnn23)c1 [Example 104]	–	–	–	> 200	4.08	14.9	–
CCN(CC)CCNC(=O)c1ccc(Nc2cc(Cc3cc(OC)ccc3OC)n3ncnc3n2)cc1 [Example 128]	–	–	–	> 200	> 200	65.8	–
CS(=O)(=O)c1ccc(Nc2cc(NC3CCCC3)nc3ncnn23)cc1 [Example 96]	2.23	> 200	> 200	–	–	–	–
CC(C)Nc1cc(Nc2ccc(S(N)(=O)=O)cc2)n2ncnc2n1 [Example 9]	–	–	–	–	–	–	IC50 ([1]; Table 1): 0.89 µM; IC50 ([2]; Table 1): > 200 µM; IC50 ([3]; Table 1): > 200 µM
COc1cc(Nc2cc(Cl)nc3ncnn23)c(Cl)cc1C(=O)O [Example 90]	102	> 200	> 200	–	–	–	–
